Source: article PMC6915728 (Nature Communications, 2019)
Where two headings read alike, the source gives them in different places.

Experiments:
[1] = tested on: AMP-evolved E. coli lines; conditions: ref Spohn et al 2019, cited from earlier work
Excerpt: Supplement 41467_2019_13618_MOESM13_ESM.xlsx, sheet "Figure 6 and S15" | column: A comprehensive dataset of antimicrobial susceptibility of AMP-adapted lines to antimicrobial peptides (AMPs).

bacterial membrane = conditions: literature mining; ref superscript numbers in the cell, listed in Supplementary Data 7 sheet References; cited from earlier work
Excerpt: Supplement 41467_2019_13618_MOESM10_ESM.xlsx, sheet "AMP details" | column: Pore formation

E. coli = conditions: previous laboratory evolution experiment; cited from earlier work
Excerpt: The results presented in this study may have important implications for the development of AMP-based therapies. Previous works reported several instances of cross-resistance interactions between membrane-targeting peptides (Supplementary Data 1), however, the potential for cross-resistance across AMPs with different modes of action has remained poorly understood. Specifically, while cross-resistance between host and therapeutic AMPs is certainly a realistic danger, not all AMPs are equally prone to cross-resistance. Given the immense diversity of AMPs with major differences in physicochemical ...

[2] = tested on: E. coli BW25113 overexpression strains (ASKA plasmids); assay: Minimum inhibitory concentration (MIC), serial broth dilution, single-gene overexpression strains vs empty-vector control; assay type: cell-based, Escherichia coli; conditions: broth dilution, MS medium, 100 µM IPTG, 30 °C, 20-24 h, OD600, 3 replicates
Method: Minimum inhibitory concentrations (MIC) were determined with a standard serial broth dilution technique with a minor modification. Specifically, instead of a two-fold dilution series, smaller AMP concentration steps were used (typically 1.2-fold) for two reasons. […] Second, gene overexpressions caused typically only small changes in the MICs of AMPs and therefore higher resolution was required. The protocol was as follows. From a stock solution of an AMP, 12-steps serial dilution was prepared in fresh MS medium in 96-well microtiter plates. Each AMP was represented in 11 different concentrations (3 wells per AMP concentration per strain). Three wells contained only medium to check the growth in the absence of AMP. After overnight growth in MS medium supplemented with chloramphenicol, bacterial strains were diluted 20-fold into fresh MS medium and grown until the cell density reached OD600 ~1. Cells were induced by 100 µM of IPTG and incubated for 1 h at 30 °C with continuous shaking at 300 rpm. Following incubation, approximately half-million cells were inoculated into the wells of the 96-well microtiter plate with a 96‐pin replicator. We used three independent replicates for each strain and the corresponding control. Two rows in the 96-well plate contained only MS medium in order to obtain the background OD value of the medium. Plates were incubated at 30 °C with continuous shaking at 300 rpm. After 20–24 h of incubation, OD600 values were measured in a microplate reader (Biotek Synergy 2).

SWLSKTAKKLENSAKKRISEGIAIAIQGGPR [CP1, Cecropin P1, antimicrobial peptide, source Ascaris suum; disrupts cell membrane; cluster C1]
Relative change in MIC (MIC of the AMP-adpated line / MIC of the ancestral strain) ([1]; AMP-adapted line BAC5_3): 1.1 | Relative change in MIC (MIC of the AMP-adpated line / MIC of the ancestral strain) ([1]; AMP-adapted line BAC5_5): 1.2 | Relative change in MIC (MIC of the AMP-adpated line / MIC of the ancestral strain) ([1]; AMP-adapted line BAC5_7): 1 | Relative change in MIC (MIC of the AMP-adpated line / MIC of the ancestral strain) ([1]; AMP-adapted line BAC5_10): 1 | Relative change in MIC (MIC of the AMP-adpated line / MIC of the ancestral strain) ([1]; AMP-adapted line CAP18_2): 1 | Relative change in MIC (MIC of the AMP-adpated line / MIC of the ancestral strain) ([1]; AMP-adapted line CAP18_5): 1.2 | Relative change in MIC (MIC of the AMP-adpated line / MIC of the ancestral strain) ([1]; AMP-adapted line CAP18_6): 1 | Relative change in MIC (MIC of the AMP-adpated line / MIC of the ancestral strain) ([1]; AMP-adapted line CAP18_8): 1 | Relative change in MIC (MIC of the AMP-adpated line / MIC of the ancestral strain) ([1]; AMP-adapted line CAP18_10): 1 | Relative change in MIC (MIC of the AMP-adpated line / MIC of the ancestral strain) ([1]; AMP-adapted line HBD3_3): 1.1 | Relative change in MIC (MIC of the AMP-adpated line / MIC of the ancestral strain) ([1]; AMP-adapted line HBD3_6): 1.1 | Relative change in MIC (MIC of the AMP-adpated line / MIC of the ancestral strain) ([1]; AMP-adapted line HBD3_8): 1.2 | Relative change in MIC (MIC of the AMP-adpated line / MIC of the ancestral strain) ([1]; AMP-adapted line HBD3_10): 1.2 | Relative change in MIC (MIC of the AMP-adpated line / MIC of the ancestral strain) ([1]; AMP-adapted line LL37_1): 0.8 | Relative change in MIC (MIC of the AMP-adpated line / MIC of the ancestral strain) ([1]; AMP-adapted line LL37_3): 1 | Relative change in MIC (MIC of the AMP-adpated line / MIC of the ancestral strain) ([1]; AMP-adapted line LL37_6): 0.9 | Relative change in MIC (MIC of the AMP-adpated line / MIC of the ancestral strain) ([1]; AMP-adapted line LL37_7): 1.1 | Relative change in MIC (MIC of the AMP-adpated line / MIC of the ancestral strain) ([1]; AMP-adapted line LL37_10): 0.9 | Relative change in MIC (MIC of the AMP-adpated line / MIC of the ancestral strain) ([1]; AMP-adapted line PEX_1): 1.1 | Relative change in MIC (MIC of the AMP-adpated line / MIC of the ancestral strain) ([1]; AMP-adapted line PEX_4): 1.2 | Relative change in MIC (MIC of the AMP-adpated line / MIC of the ancestral strain) ([1]; AMP-adapted line PEX_5): 1.1 | Relative change in MIC (MIC of the AMP-adpated line / MIC of the ancestral strain) ([1]; AMP-adapted line PEX_6): 1 | Relative change in MIC (MIC of the AMP-adpated line / MIC of the ancestral strain) ([1]; AMP-adapted line PEX_7): 1.3 | Relative change in MIC (MIC of the AMP-adpated line / MIC of the ancestral strain) ([1]; AMP-adapted line PR39_1): 1.1 | Relative change in MIC (MIC of the AMP-adpated line / MIC of the ancestral strain) ([1]; AMP-adapted line PR39_2): 1.1 | Relative change in MIC (MIC of the AMP-adpated line / MIC of the ancestral strain) ([1]; AMP-adapted line PR39_5): 1 | Relative change in MIC (MIC of the AMP-adpated line / MIC of the ancestral strain) ([1]; AMP-adapted line PR39_7): 1 | Relative change in MIC (MIC of the AMP-adpated line / MIC of the ancestral strain) ([1]; AMP-adapted line PR39_10): 0.8 | Relative change in MIC (MIC of the AMP-adpated line / MIC of the ancestral strain) ([1]; AMP-adapted line PROA_2): 1.1 | Relative change in MIC (MIC of the AMP-adpated line / MIC of the ancestral strain) ([1]; AMP-adapted line PROA_3): 0.9 | Relative change in MIC (MIC of the AMP-adpated line / MIC of the ancestral strain) ([1]; AMP-adapted line PROA_7): 0.8 | Relative change in MIC (MIC of the AMP-adpated line / MIC of the ancestral strain) ([1]; AMP-adapted line PROA_8): 0.9 | Relative change in MIC (MIC of the AMP-adpated line / MIC of the ancestral strain) ([1]; AMP-adapted line PROA_9): 1.1 | Relative change in MIC (MIC of the AMP-adpated line / MIC of the ancestral strain) ([1]; AMP-adapted line PXB_2): 1.3 | Relative change in MIC (MIC of the AMP-adpated line / MIC of the ancestral strain) ([1]; AMP-adapted line PXB_5): 1 | Relative change in MIC (MIC of the AMP-adpated line / MIC of the ancestral strain) ([1]; AMP-adapted line PXB_6): 1.2 | Relative change in MIC (MIC of the AMP-adpated line / MIC of the ancestral strain) ([1]; AMP-adapted line PXB_8): 1.1 | Relative change in MIC (MIC of the AMP-adpated line / MIC of the ancestral strain) ([1]; AMP-adapted line PXB_10): 1.2 | Pore formation (whether AMP makes pores in the bacterial membrane) (bacterial membrane): Yes6-8 | Emergence of resistant lines in laboratory evolution (E. coli): did not result in any significant resistant lines | Relative MIC ([2]; overexpression strain nikB, MIC of overexpression strain / MIC of empty-plasmid control): 0.8 | Relative MIC ([2]; overexpression strain ptsN, MIC of overexpression strain / MIC of empty-plasmid control): 0.76 | Relative MIC ([2]; overexpression strain yiaJ, MIC of overexpression strain / MIC of empty-plasmid control): 0.8

FLGKVFKLASKVFKAVFGKV [R8, synthetic AMP (from linguistic model); cluster C1]
Relative change in MIC (MIC of the AMP-adpated line / MIC of the ancestral strain) ([1]; AMP-adapted line BAC5_3): 1 | Relative change in MIC (MIC of the AMP-adpated line / MIC of the ancestral strain) ([1]; AMP-adapted line BAC5_5): 1 | Relative change in MIC (MIC of the AMP-adpated line / MIC of the ancestral strain) ([1]; AMP-adapted line BAC5_7): 1.1 | Relative change in MIC (MIC of the AMP-adpated line / MIC of the ancestral strain) ([1]; AMP-adapted line BAC5_10): 1.1 | Relative change in MIC (MIC of the AMP-adpated line / MIC of the ancestral strain) ([1]; AMP-adapted line CAP18_2): 1.2 | Relative change in MIC (MIC of the AMP-adpated line / MIC of the ancestral strain) ([1]; AMP-adapted line CAP18_5): 1.1 | Relative change in MIC (MIC of the AMP-adpated line / MIC of the ancestral strain) ([1]; AMP-adapted line CAP18_6): 1 | Relative change in MIC (MIC of the AMP-adpated line / MIC of the ancestral strain) ([1]; AMP-adapted line CAP18_8): 1.1 | Relative change in MIC (MIC of the AMP-adpated line / MIC of the ancestral strain) ([1]; AMP-adapted line CAP18_10): 1.2 | Relative change in MIC (MIC of the AMP-adpated line / MIC of the ancestral strain) ([1]; AMP-adapted line HBD3_3): 1 | Relative change in MIC (MIC of the AMP-adpated line / MIC of the ancestral strain) ([1]; AMP-adapted line HBD3_6): 1.2 | Relative change in MIC (MIC of the AMP-adpated line / MIC of the ancestral strain) ([1]; AMP-adapted line HBD3_8): 1 | Relative change in MIC (MIC of the AMP-adpated line / MIC of the ancestral strain) ([1]; AMP-adapted line HBD3_10): 1 | Relative change in MIC (MIC of the AMP-adpated line / MIC of the ancestral strain) ([1]; AMP-adapted line LL37_1): 1.2 | Relative change in MIC (MIC of the AMP-adpated line / MIC of the ancestral strain) ([1]; AMP-adapted line LL37_3): 1.2 | Relative change in MIC (MIC of the AMP-adpated line / MIC of the ancestral strain) ([1]; AMP-adapted line LL37_6): 1 | Relative change in MIC (MIC of the AMP-adpated line / MIC of the ancestral strain) ([1]; AMP-adapted line LL37_7): 1.1 | Relative change in MIC (MIC of the AMP-adpated line / MIC of the ancestral strain) ([1]; AMP-adapted line LL37_10): 1.2 | Relative change in MIC (MIC of the AMP-adpated line / MIC of the ancestral strain) ([1]; AMP-adapted line PEX_1): 1.1 | Relative change in MIC (MIC of the AMP-adpated line / MIC of the ancestral strain) ([1]; AMP-adapted line PEX_4): 1.2 | Relative change in MIC (MIC of the AMP-adpated line / MIC of the ancestral strain) ([1]; AMP-adapted line PEX_5): 1.1 | Relative change in MIC (MIC of the AMP-adpated line / MIC of the ancestral strain) ([1]; AMP-adapted line PEX_6): 1 | Relative change in MIC (MIC of the AMP-adpated line / MIC of the ancestral strain) ([1]; AMP-adapted line PEX_7): 1.2 | Relative change in MIC (MIC of the AMP-adpated line / MIC of the ancestral strain) ([1]; AMP-adapted line PR39_1): 1.1 | Relative change in MIC (MIC of the AMP-adpated line / MIC of the ancestral strain) ([1]; AMP-adapted line PR39_2): 1 | Relative change in MIC (MIC of the AMP-adpated line / MIC of the ancestral strain) ([1]; AMP-adapted line PR39_5): 1 | Relative change in MIC (MIC of the AMP-adpated line / MIC of the ancestral strain) ([1]; AMP-adapted line PR39_7): 1 | Relative change in MIC (MIC of the AMP-adpated line / MIC of the ancestral strain) ([1]; AMP-adapted line PR39_10): 1 | Relative change in MIC (MIC of the AMP-adpated line / MIC of the ancestral strain) ([1]; AMP-adapted line PROA_2): 1 | Relative change in MIC (MIC of the AMP-adpated line / MIC of the ancestral strain) ([1]; AMP-adapted line PROA_3): 1 | Relative change in MIC (MIC of the AMP-adpated line / MIC of the ancestral strain) ([1]; AMP-adapted line PROA_7): 1 | Relative change in MIC (MIC of the AMP-adpated line / MIC of the ancestral strain) ([1]; AMP-adapted line PROA_8): 1 | Relative change in MIC (MIC of the AMP-adpated line / MIC of the ancestral strain) ([1]; AMP-adapted line PROA_9): 1 | Relative change in MIC (MIC of the AMP-adpated line / MIC of the ancestral strain) ([1]; AMP-adapted line PXB_2): 1 | Relative change in MIC (MIC of the AMP-adpated line / MIC of the ancestral strain) ([1]; AMP-adapted line PXB_5): 1.7 | Relative change in MIC (MIC of the AMP-adpated line / MIC of the ancestral strain) ([1]; AMP-adapted line PXB_6): 1.9 | Relative change in MIC (MIC of the AMP-adpated line / MIC of the ancestral strain) ([1]; AMP-adapted line PXB_8): 1.9 | Relative change in MIC (MIC of the AMP-adpated line / MIC of the ancestral strain) ([1]; AMP-adapted line PXB_10): 1.2 | Emergence of resistant lines in laboratory evolution (E. coli): did not result in any significant resistant lines | Relative MIC ([2]; overexpression strain mlaD, MIC of the overexpression strain / MIC of the control strain (wild-type carrying the empty plasmid)): 1 | Relative MIC ([2]; overexpression strain mzrA, MIC of overexpression strain / MIC of empty-plasmid control): 1.3 | Relative MIC ([2]; overexpression strain yhbJ, MIC of overexpression strain / MIC of empty-plasmid control): 1
